The values that follow come from patent US20150197550A1 (UNIVERSITY OF ULSTER, priority 2012, published 2015).

Square brackets hold non-standard residues; d marks the D form. Peptide text beside a SMILES is read from it.

Data set [1] can be described thus: Stability on incubation with mouse plasma for 8 h (RP-HPLC peak height). It is filed as in vitro ADME. Particulars: mouse, plasma.
Protocol: The samples were then separated on RP-HPLC and the peak height compared to the value at time=0 hours.
The conditions of data set [2]: human, in vivo; cited from earlier work.

In data set [1], `CSCC[C@H](NC(=O)[C@H](Cc1ccc(O)cc1)NC(=O)[C@H](CCCCN)NC(=O)[C@H](CO)NC(=O)[C@H](Cc1ccc(O)cc1)NC(=O)[C@H](CC(=O)O)NC(=O)[C@H](CO)NC(=O)[C@@H](NC(=O)[C@H](Cc1ccccc1)NC(=O)[C@@H](NC(=O)CNC(=O)[C@H](CCC(=O)O)NC(=O)[C@@H](C)NC(=O)[C@@H](N)Cc1c[nH]cn1)[C@@H](C)O)[C@@H](C)O)C(=O)N[C@@H](CC(=O)O)C(=O)N[C@@H](CC(N)=O)C(=O)N[C@@H](CCCNC(=N)N)C(=O)N[C@@H](CCCNC(=N)N)C(=O)N[C@@H](C)C(=O)N[C@@H](CCCCN)C(=O)N[C@@H](CC(=O)O)C(=O)N[C@@H](Cc1ccccc1)C(=O)N[C@H](C(=O)N[C@@H](CCC(N)=O)C(=O)N[C@@H](Cc1c[nH]c2ccccc12)C(=O)N[C@@H](CC(C)C)C(=O)N[C@@H](CCSC)C(=O)N[C@@H](CC(N)=O)C(=O)N[C@H](C(=O)N1CCC[C@H]1C(=O)N[C@@H](CO)C(=O)N[C@@H](CO)C(=O)NCC(=O)N[C@@H](C)C(=O)N1CCC[C@H]1C(=O)N1CCC[C@H]1C(=O)N1CCC[C@H]1C(=O)N[C@@H](CO)C(N)=O)[C@@H](C)O)C(C)C` [(D-A^2) dogfish glucagon exendin, (D-A^2) dogfish glucagon exendin end] (H-H[dA]EGTFTSDYSKYMDNRRAKDFVQWLMNTPSSGAPPPS-NH2; N-terminus assumed) yielded a metabolised at 8 h of 18.3%. In data set [1], `CSCC[C@H](NC(=O)[C@H](Cc1ccc(O)cc1)NC(=O)[C@H](CCCCN)NC(=O)[C@H](CO)NC(=O)[C@H](Cc1ccc(O)cc1)NC(=O)[C@H](CC(=O)O)NC(=O)[C@H](CO)NC(=O)[C@@H](NC(=O)[C@H](Cc1ccccc1)NC(=O)[C@@H](NC(=O)CNC(=O)[C@H](CCC(=O)O)NC(=O)[C@@H](C)NC(=O)[C@@H](N)Cc1c[nH]cn1)[C@@H](C)O)[C@@H](C)O)C(=O)N[C@@H](CC(=O)O)C(=O)N[C@@H](CC(N)=O)C(=O)N[C@@H](CCCNC(=N)N)C(=O)N[C@@H](CCCNC(=N)N)C(=O)N[C@@H](C)C(=O)N[C@@H](CCCCN)C(=O)N[C@@H](CC(=O)O)C(=O)N[C@@H](Cc1ccccc1)C(=O)N[C@H](C(=O)N[C@@H](CCC(N)=O)C(=O)N[C@@H](Cc1c[nH]c2ccccc12)C(=O)N[C@@H](CC(C)C)C(=O)N[C@@H](CCSC)C(=O)N[C@@H](CC(N)=O)C(=O)N[C@H](C(=O)O)[C@@H](C)O)C(C)C` [(D-Ala^2) dogfish glucagon, (D-A^2) dogfish glucagon] (H-H[dA]EGTFTSDYSKYMDNRRAKDFVQWLMNT-OH; N-terminus and C-terminus assumed) showed a metabolised at 8 h of 40.1%. Still for that read-out and setting: with `CSCC[C@H](NC(=O)[C@H](Cc1ccc(O)cc1)NC(=O)[C@H](CCCCN)NC(=O)[C@H](CO)NC(=O)[C@H](Cc1ccc(O)cc1)NC(=O)[C@H](CC(=O)O)NC(=O)[C@H](CO)NC(=O)[C@@H](NC(=O)[C@H](Cc1ccccc1)NC(=O)[C@@H](NC(=O)CNC(=O)[C@H](CCC(=O)O)NC(=O)[C@H](CO)NC(=O)[C@@H](N)Cc1c[nH]cn1)[C@@H](C)O)[C@@H](C)O)C(=O)N[C@@H](CC(=O)O)C(=O)N[C@@H](CC(N)=O)C(=O)N[C@@H](CCCNC(=N)N)C(=O)N[C@@H](CCCNC(=N)N)C(=O)N[C@@H](C)C(=O)N[C@@H](CCCCN)C(=O)N[C@@H](CC(=O)O)C(=O)N[C@@H](Cc1ccccc1)C(=O)N[C@H](C(=O)N[C@@H](CCC(N)=O)C(=O)N[C@@H](Cc1c[nH]c2ccccc12)C(=O)N[C@@H](CC(C)C)C(=O)N[C@@H](CCSC)C(=O)N[C@@H](CC(N)=O)C(=O)N[C@H](C(=O)O)[C@@H](C)O)C(C)C` [dogfish glucagon, Dogfish glucagon (1-29)] (H-HSEGTFTSDYSKYMDNRRAKDFVQWLMNT-OH; N-terminus and C-terminus assumed) the figure was 38.8%. On to Glucagon-like peptide-1 [GLP-1], for which the half-life result in data set [2] is on record as “less than two”.
